Measured values published in patent US12110286B2, “Benzimidazolone derived inhibitors of BCL6” (Cancer Research Technology Limited, priority 2017, dated 2024).

Key:
[1] = target: Trx-6×His-BCL6 (human BCL6 BTB domain covering amino-acid sequence 5-129) (Homo sapiens (Human), UniProt P41182); assay: HTRF in vitro assay (BCL6 / BCOR-AF633 peptide); type: binding; conditions: further generated data, 1 nM Trx-6×His-BCL6, 300 nM BCOR-AF633 peptide, 0.5 nM anti-6×His-Terbium cryptate
Procedure: The % inhibition at each concentration was calculated by normalising FRET ratio to the appropriate high (DMSO with all reagents) and low (DMSO without BCL6) controls.

endogenous BCL6 protein = endogenous BCL6 protein (Homo sapiens (Human), UniProt P41182); assay: Immunofluorescence-based BCL6 degradation assay; type: cell-based; conditions: 2 hours with compound
Procedure: Immunofluorescence-Based BCL6 Degradation Assay
DC50 values (compound concentration at which 50% of endogenous BCL6 protein is degraded) were determined in SUDHL-4 cells (American Type Culture Collection) in an immunofluorescence-based assay using an InCell2200 high content imaging system (GE Healthcare). […] After 20 hours cell culture at 37° C./CO2 incubator, compounds were dispensed in the cell culture plate using ECHO550 acoustic dispenser (Labcyte, Inc.), as 8 point-concentration response (ranging from 5 nM to 10 μM) in 0.67% final DMSO concentration. Cells were incubated with compound for 2 hours at 37° C./CO2 incubator followed by fixation in 4.5% formaldehyde (37% formaldehyde solution, Sigma catalogue F8775) at room temperature for 15 min. […] Blocking and cell permeabilisation were performed by incubating the fixed cells for 1 hour at room temperature in 1×TBS, 5% BSA, 1% Triton X100, followed by three washes on PW384 plate washer. Primary and secondary antibodies were prepared in 1×TBS, 1% BSA, 0.2% Triton X100. […] After incubation in each antibody, cells were washes four times in 1×TBS-0.05% tween on PW384 plate washer. Cells were finally incubated for 60 min with nuclear staining RedDot2 dye (Biotium) at 0.5× the stock concentration in 1×TBS. BCL6 expression in the absence or presence of compound was detected on InCell2200 with 20× objective and quantified on InCell Analyser 3.7.2 workstation (GE Healthcare). The % response at each concentration was calculated by normalising BCL6 expression in the presence of compound to the appropriate high (DMSO) and low (DMSO with 7 μM CCT369260) controls.

SU-DHL-4 cells = assay: 14-day cell proliferation assay (CellTiter Glo); type: cell-based; conditions: Homo sapiens, SU-DHL-4, 336 h; SU-DHL4 cells, 14 days
Procedure: 14-Day Cell Proliferation Assay
SU-DHL-4 cells were seeded in 96-well culture plates at a density of 2000 cells/well in RPMI-1640 medium (Sigma-Aldrich) supplemented with 10% FBS (Gibco). Compounds were initially dispensed into 96-well U-bottom plates using an Echo 550 acoustic dispenser (Labcyte Inc.), then diluted in RPMI-1640 medium and transferred onto the cells. Cells were treated with 8 compound concentrations in duplicate, ranging from 1 nM to 10 μM, in a final DMSO concentration of 0.1% and final volume of 100 μl. Cells were incubated with compound for 14 days, with medium changes at days 3, 7 and 10 carried out as follows: fresh 96-well cell culture plates were prepared containing 100 μl medium plus compound at the assay concentrations (white plates were used on day 10 to optimise luminescence measurement). Assay plates containing cells were vortexed to mix and cell density in one control well was counted using a Coulter Z2 cell counter (Beckman Coulter). The volume of medium containing 2000 cells in the control well was calculated and this volume of cells was transferred from every well of the assay plates to the corresponding well of the fresh plates containing compound. After 14 days, CellTiter Glo reagent (Promega) was added to the medium in each well of the assay plate at a ratio of 1:2, mixed on a plate shaker, then incubated at room temperature for 10 minutes. Luminescence was measured using an Envision plate reader (Perkin Elmer) and the relative luminescence at each compound concentration, compared to DMSO alone, was calculated. G150 were determined using a 4-parameter curve fit in Dotmatics (Bishops Stortford, UK).

IC50 ([1]; read-out: HTRF pIC50 (converted)) [nM]	SMILES	Degradation assay in SU-DHL4 cells (pDC50) (endogenous BCL6 protein)	GI50 (SU-DHL-4 cells) [nM]	HTRF pIC50 [1]
1740	C[C@@H]1CN(c2ncc(Cl)c(Nc3ccc4c(c3)n(CCC(C)(C)O)c(=O)n4CCC(C)(C)O)n2)C[C@H](C)C1(F)F [Example 35j, 5-((5-chloro-2-((3R,5S)-4,4-difluoro-3,5-dimethylpiperidin-1-yl)pyrimidin-4-yl)amino)-1,3-bis(3-hydroxy-3-methylbutyl)-1,3-dihydro-2H-benzo[d]imidazol-2-one]	6.43	760	
	Cn1c(=O)n(CCC(C)(C)O)c2cc(Nc3nc(N4CCC(F)(F)CC4)ncc3Cl)ccc21 [Example 35d, 5-((5-chloro-2-(4,4-difluoropiperidin-1-yl)pyrimidin-4-yl)amino)-3-(3-hydroxy-3-methylbutyl)-1-methyl-1,3-dihydro-2H-benzo[d]imidazol-2-one]	6.59	1130	6.48
